Data reported in patent US20250382588A1, “CHIMERIC AAV AND USES THEREOF” (priority 2023, published 2025).
“Also recorded” adds a separate entry of the source.

How the values were obtained:
[1] = tested on: parkinsonian macaque model (MPP+); assay: Parkinsonian symptoms in MPP+ macaques (PD score, locomotion, EMG tremor, motor skill, dyskinesia score); details: for dyskinesia-like behaviors (dyskinesia score): long-term treatment
Protocol: Parkinsonian conditions in macaque monkeys were established by unilaterally injecting 1-Methyl-4-phenylpyridinium (MPP+) into the SNc (FIG. 14). […] Drug injections were performed in five sites covering the whole SNc. A total volume of 10 ul MPP+ was injected into SNc at a speed of 50 nL/min. Monkeys were continuously monitored by veterinarians after lesion.
Two experienced observers blindly evaluated parkinsonian symptoms of the monkeys three days per week throughout the observation periods. Parkinsonian symptoms were quantified according to the well-established Kurlan scale (Part I. Parkinsonian features), a widely used scale to quantify PD symptoms in old world monkeys. A score of zero indicates a normal monkey, whereas a maximum score of 29 indicates an animal with severe PD symptoms. For separate behavioral categories, scoring of the upper limb and the lower limb were added together. Additionally, action or intention tremors and resting tremors were added together.
Two experienced observers blindly evaluated dyskinesia symptoms of the monkeys three days per week throughout the observation periods. Dyskinesia score criteria were: 0: Absent. 1: Mild, fleeting, present <30% of the observation period. 2: Moderate, not interfering with normal activity, present >30% of the observation period. 3: Marked, at times interfering with normal activity; present <70% of the observation period.4: Severe, continuous, replacing normal activity, present >70% of the observation.
For parkinsonian monkeys, DCZ (Deschloroclozapine, 0.3 mg/kg, MCE) was administered via intramuscular injection. After DCZ was successfully infused, monkeys were immediately transferred to the observation cage for video recording. […] For long-term DCZ treatment, parkinsonian monkeys were given DCZ at a dose of 0.3 mg/kg every other day via intramuscular injection. […] One month of washout was allowed before administration of DCZ for a 2 months treatment.
A grasp-to-eat/hand-to-mouth movement test was conducted as an indication of motor skills in monkeys. Monkeys were first trained to sit in a primate chair with the healthy hand restricted. Monkeys were then trained to grasp food (a piece of apple, ˜1 cm3) using the MPP+-affected hand from the experimenter. The task contained three blocks, with 20-minute intervals between different blocks. Each block included ten continuous trials. Trials were defined as successful when monkeys were able to bring food to their mouth within a minute.
During video recording, a top (x/y) and a side (x/z) camera were used to record the observation cage. The VigiePrimate system (Viewpoint) was used to analyze the subject's activity and extract movement data from the recorded videos. The tracking data were synchronously sampled at 25 Hz for both top view and side view, and then combined to generate one dataset representing the 3D space. The tracking data were normalized to 0-100 cm for all x-, y-, and z-axes, of which x represents right to left, y represents front to back, and z represents bottom to top.
Customized surface EMG electrodes were used for EMG recordings.

[2] = Motor-related behaviors in naïve macaques after DCZ; assay type: in vivo; details: DCZ 0.3 mg/kg
Protocol: The locomotion tests for monkeys were conducted in a custom-made observation cage (100 cm×100 cm×100 cm). The top and front of the cage were made of toughened glass in order to gain a clear view for behavioral recording. Monkeys were habituated to the observation cage by placing them inside for 30 minutes on three separate days.

[3] = in vivo
[4] = target: T1, rM3Ds (Rattus norvegicus, UniProt P08483, A177S/A238G/A489L/DEL261-437/DEL441-478/E258S/I253V/I483M/INS256[…]/K178L/K182A/K255R/K484R/K486H/L173F/L482A/M480V/R171S/R176Q/R179M/S481M/T174R/T181R/T257A/Y148C); assay: Electrophysiological recording in caudate/putamen of MPP+ lesioned macaques after CNO or DCZ; assay type: in vivo
T1 sequence (P08483 with tags, fused parts or gaps Y148C/R171S/L173F/T174R/R176Q/A177S/K178L/R179M/T181R/K182A/A238G/I253V/K255R/INS256[…]/T257A/E258S/DEL261-437/DEL441-478/M480V/S481M/L482A/I483M/K484R/K486H/A489L): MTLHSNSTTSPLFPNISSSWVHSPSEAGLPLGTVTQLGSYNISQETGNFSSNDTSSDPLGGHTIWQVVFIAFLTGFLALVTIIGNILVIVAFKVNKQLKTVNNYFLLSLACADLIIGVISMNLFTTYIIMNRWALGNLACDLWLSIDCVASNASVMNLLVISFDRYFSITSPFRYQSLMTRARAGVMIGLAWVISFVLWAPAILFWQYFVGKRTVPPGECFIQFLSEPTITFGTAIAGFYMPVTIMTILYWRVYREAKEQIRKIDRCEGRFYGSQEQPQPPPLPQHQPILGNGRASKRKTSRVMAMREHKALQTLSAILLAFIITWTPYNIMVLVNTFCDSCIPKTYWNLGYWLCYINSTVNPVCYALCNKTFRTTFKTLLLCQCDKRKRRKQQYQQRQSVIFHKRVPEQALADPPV
Protocol: Intriguingly, many of the symptoms were greatly reversed after systemic deschloroclozapine (DCZ) administration. DCZ is a potent brain-penetrable agonist for rM3Ds with reduced off-targeting binding compared to CNO, and was administered to activate the DREADD system in the macaque brain.
Electrophysiological recording was performed through a recording chamber while the monkey was anesthetized. Neural responses were recorded by a 16-channel linear probe (Plexon Inc, Uprobe) driven by a mechanical microdrive (Alpha Omega, FlexMT). Signals were passed through a head stage (Plexon Inc, HST/16V-G20 LN) and then split and filtered between 300 Hz and 5 kHz to identify spiking activity with an amplifier system (Plexon Inc, OmniPlex). Detected spikes were then sorted by commercially available software (Plexon Inc, Offline Sorter) for further analysis. To quantify the effect of CNO/DCZ injection, neural activity was recorded for 60 minutes following CNO/DCZ injection. The response time-course for each channel was obtained by counting the spikes within every 10-minute window and then normalizing to the maximal.
To determine the effect of CNO/DCZ injection on the direction of signal change, we performed Pearson correlation between neural responses and time using the ‘corr’ function in Matlab, which generates the correlation coefficient ‘r’ and significant level ‘p’. A neuron was considered to have “Increased” activity when r>0 and p<[…]; and considered to have “Decreased” activity when r<0 and p<0.05. Otherwise, neurons were considered to be “Unchanged” in their neural activities. The responses of all increased neurons were then averaged after being normalized by the maximal response (Crowe et al., 2014; Dai and Wang, 2018; Hirokawa et al., 2019) following CNO/DCZ injection, and then plotted as a function of time to generate the normalized population response.

[5] = CSF concentration of DCZ by LC-MS; assay type: in vivo, macaques; details: 24 hours after drug infusion, 0.3 mg/kg i.m.
Text: One month of washout was allowed before administration of DCZ.

[6] = tested on: parkinsonian macaque model (MPP+); details: clinical; cited from earlier work
[7] = caudate/putamen, CNO 36 cells, DCZ 31 cells

Row | SMILES | motor skills (hand to mouth movement) ([1]; DCZ treatment) | spontaneous movement/motor deficits in an observation cage ([1]; DCZ treatment) | tremor (EMG) ([1]; DCZ treatment) | duration of effect ([1]; FIG. 18C) | alleviation of parkinsonian symptoms over long-term treatment ([1]; continuous DCZ) | speed of reversal of symptoms ([1]; initial phase of drug administration) | dyskinesia-like behaviors (dyskinesia score) [1] | alleviating symptoms after drug administration ([1]; single dose after steady-state efficacy) | motor-related behaviors in naïve monkeys [2] | blood levels of common liver- and kidney-related factors [3] | neuronal activity in MPP+ lesioned macaques, in words ([4]; anesthetized animals) | cells activated (FIG. 15G) [4, 7] [%] | cells inactivated (FIG. 15G) [4, 7] [%] | cells unchanged (FIG. 15G) [4, 7] [%] | DCZ level in cerebrospinal fluid [5] | effect of 4 months prior L-Dopa administration on DCZ treatment ([1]; one month washout) | standard efficacy window [6] [h]
1 | CN1CCN(C2=Nc3ccccc3Nc3ccccc32)CC1 [DCZ, deschloroclozapine] | significant recovery of motor skills; also recorded: partially restored | increase in spontaneous movement; also recorded: successfully rescue motor deficits | great reduced or even eliminated; also recorded: removed | over 24 hr | consistent during an 8-month continuous treatment | faster reversal of symptoms than levodopa; also recorded: faster than L-Dopa | dyskinesia-free; also recorded: did not elicit dyskinesia-like behaviors; also recorded: dyskinesia free | at least 24 hours | did not alter motor-related behaviors; also recorded: doesn't alter motor-related behaviors | remained stable | induced an increase in neuronal activity | 41.9 | 9.7 | 48.4 | no detectable levels | – | –
2 | N[C@@H](Cc1ccc(O)c(O)c1)C(=O)O [L-Dopa, levodopa] | – | – | – | – | – | – | evident; also recorded: pronounced | – | – | – | – | – | – | – | – | did not affect the efficacy of DCZ treatment or the absence of dyskinesia | 6
